Measured values: BindingDB's records for doi:10.1007/s10822-022-00478-x (Roche Innovation Center Basel, F. Hoffmann-La Roche Ltd., 2022)

Molecular target: cAMP and cAMP-inhibited cGMP 3',5'-cyclic phosphodiesterase 10A (Homo sapiens, UniProt Q9Y233)
Assay: PDE10A assay
Summary of the method: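 Scintillation proximity readout of [3H]cGMP hydrolysis (50 nM final substrate, 15 min) by 2 ng/well human PDE10A after 15 min compound preincubation at RT, pH 7.5 with MgCl2. Four-parameter logistic fit gave IC50, reported as pIC50.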

| IC50 | Compound |
| --- | --- |
| 31 nM | O=C(Nc1cccc(OC(F)(F)F)c1)c1nc(C2CC2)cnc1Nc1cncnc1 [Roche-Dataset for PDE10A, Compound 874] |
| 26 nM | CCC(=O)c1cc(NC(=O)c2nc(C3CC3)cnc2Nc2cncnc2)ccc1O [Roche-Dataset for PDE10A, Compound 875] |
| 1480 nM | CCOc1ccccc1C(=O)Nc1cc(-c2ccccn2)n[nH]1 [Roche-Dataset for PDE10A, Compound 876] |
| 15 nM | O=C(Nc1cccc(N2CCCC2=O)c1)c1nc(C2CC2)cnc1Nc1cncnc1 [Roche-Dataset for PDE10A, Compound 878] |
| 9.65 nM | O=C(NCC1CC1)c1cccc(NC(=O)c2nc(C3CC3)cnc2Nc2cncnc2)n1 [Roche-Dataset for PDE10A, Compound 880] |
| 27 nM | O=C1CCc2ccc(NC(=O)c3nc(C4CC4)cnc3Nc3cncnc3)cc21 [Roche-Dataset for PDE10A, Compound 881] |
| 32 nM | CN(C)C(=O)Cn1ccc(NC(=O)c2nc(C3CC3)cnc2Nc2cncnc2)n1 [Roche-Dataset for PDE10A, Compound 882] |
| 118 nM | Cn1ccc(NC(=O)c2nc(C3CC3)ccc2Nc2cncnc2)n1 [Roche-Dataset for PDE10A, Compound 883] |
| 6220 nM | Cc1noc(C(=O)Nc2cc(-c3ccccn3)nn2C)c1Br [Roche-Dataset for PDE10A, Compound 886] |
| 1060 nM | Cc1ncc(C)n2nc(CCc3nc(N4CCNC4=O)nn3C)nc12 [Roche-Dataset for PDE10A, Compound 887] |
| 5.48 nM | CC(C)(O)CNC(=O)c1cccc(NC(=O)c2nc(C3CC3)cnc2Nc2cncnc2)n1 [Roche-Dataset for PDE10A, Compound 894] |
| 10000 nM | O=C(Nc1ccn2nc(-c3ccccc3)nc2c1)c1ccc(Cl)nn1 [Roche-Dataset for PDE10A, Compound 897] |
| 3350 nM | Cc1cc(NC(=O)c2ccc3cc(-c4ccccc4)nn3c2)on1 [Roche-Dataset for PDE10A, Compound 898] |
| 15 nM | CS(=O)(=O)Nc1cccc(NC(=O)c2nc(C3CC3)cnc2Nc2cncnc2)c1 [Roche-Dataset for PDE10A, Compound 900] |
| 1410 nM | O=C(NCCC1CCCCC1)c1nc(C2CC2)cnc1Nc1cncnc1 [Roche-Dataset for PDE10A, Compound 901] |
| 2440 nM | Cn1ncc(C(=O)N2CCC2)c1C(=O)Nc1cn(-c2cnccn2)cn1 [Roche-Dataset for PDE10A, Compound 906] |
| 771 nM | COc1ccc2c(=O)n(C)c3c(C(C)C)nc(-c4ccccc4Cl)n3c2c1 [Roche-Dataset for PDE10A, Compound 908] |
| 747 nM | Cc1ncc(C)n2nc(/C=C/c3nc(N4CCCN4C)nn3C)nc12 [Roche-Dataset for PDE10A, Compound 911] |
| 4.99 nM | CCOC(=O)Cc1csc(NC(=O)c2nc(C3CC3)cnc2Nc2cncnc2)n1 [Roche-Dataset for PDE10A, Compound 914] |
| 1470 nM | O=C(NCCC1CCOCC1)c1nc(C2CC2)cnc1Nc1cncnc1 [Roche-Dataset for PDE10A, Compound 915] |
| 24 nM | CC(C)Oc1cccc(NC(=O)c2nc(C3CC3)cnc2Nc2cncnc2)n1 [Roche-Dataset for PDE10A, Compound 917] |
| 7.49 nM | O=C(Nc1cccc(C(=O)N2CCOCC2)n1)c1nc(C2CC2)cnc1Nc1cncnc1 [Roche-Dataset for PDE10A, Compound 920] |

| IC50 | Compound |
| --- | --- |
| 9730 nM | COc1ncccc1C(=O)Nc1cc(-c2ccccn2)nn1C [Roche-Dataset for PDE10A, Compound 921] |
| 12 nM | O=C(N[C@@H]1CCN(c2ccc(Cl)nn2)C1)c1nc(C2CC2)ccc1Nc1cncnc1 [Roche-Dataset for PDE10A, Compound 923] |
| 1160 nM | O=C(NCC1(c2ccccc2)CCOCC1)c1nc(C2CC2)cnc1Nc1cncnc1 [Roche-Dataset for PDE10A, Compound 924] |
| 5770 nM | CC(=O)Nc1nc2cc(NC(=O)c3nc(C)ccc3C)ccc2s1 [Roche-Dataset for PDE10A, Compound 926] |
| 8.6 nM | CC(C)NC(=O)c1cccc(NC(=O)c2nc(C3CC3)cnc2Nc2cncnc2)n1 [Roche-Dataset for PDE10A, Compound 928] |
| 5.75 nM | O=C(Nc1ccc2cccnc2c1)c1nc(C2CC2)ccc1Nc1cncnc1 [Roche-Dataset for PDE10A, Compound 929] |
| 124 nM | O=C1CCc2c(NC(=O)c3nc(C4CC4)cnc3Nc3cncnc3)cccc21 [Roche-Dataset for PDE10A, Compound 932] |
| 811 nM | Cn1cc(Br)c(C(=O)Nc2cc(-c3ccccn3)nn2C)n1 [Roche-Dataset for PDE10A, Compound 934] |
| 6.91 nM | O=C(Nc1conc1-c1ccccc1)c1nc(C2CC2)ccc1Nc1cncnc1 [Roche-Dataset for PDE10A, Compound 935] |
| 3500 nM | CCOC(=O)c1cnn(C)c1C(=O)Nc1ccn2nc(Br)nc2c1 [Roche-Dataset for PDE10A, Compound 936] |
| 10000 nM | O=C(c1nc(C2CC2)cnc1Nc1cncnc1)N1CCC(Cc2ccccc2)CC1 [Roche-Dataset for PDE10A, Compound 937] |
| 624 nM | Cn1ncc(C(=O)N2CCOCC2)c1C(=O)N[C@H]1CCn2cc(-c3ccc(F)cc3)nc2C1 [Roche-Dataset for PDE10A, Compound 938] |
| 2450 nM | CC(C)C[C@H](CO)NC(=O)c1nc(C2CC2)cnc1Nc1cncnc1 [Roche-Dataset for PDE10A, Compound 939] |
| 8140 nM | Cc1ccc(Nc2cncc(O)n2)c(C(=O)Nc2ccn(C)n2)n1 [Roche-Dataset for PDE10A, Compound 940] |
| 10000 nM | Cn1nc(NC(=O)c2c(C(=O)N3CCC3)cnn2C)cc1C(=O)N1CCCCC1 [Roche-Dataset for PDE10A, Compound 941] |
| 9.94 nM | O=C(Nc1cnc(Cl)cc1Cl)c1nc(C2CC2)ccc1Nc1cncnc1 [Roche-Dataset for PDE10A, Compound 942] |
| 13 nM | COCCn1ncc(NC(=O)c2nc(C3CC3)ccc2Nc2cncnc2)c1C(=O)N(C)C [Roche-Dataset for PDE10A, Compound 944] |
| 55 nM | O=C(Nc1ccc2nccnc2c1)c1nc(C2CC2)ccc1Nc1cncnc1 [Roche-Dataset for PDE10A, Compound 945] |
| 2540 nM | COCCNC(=O)c1nc(C2CC2)cnc1Nc1cncnc1 [Roche-Dataset for PDE10A, Compound 946] |
| 967 nM | Cc1nc(-c2ccc(Cl)cc2)oc1C(=O)Nc1cc(-c2ccccn2)nn1C [Roche-Dataset for PDE10A, Compound 947] |
| 27 nM | Cc1ccc2c(c1)c(=O)n(C)c1c(C)nc(-c3ccccc3Cl)n21 [Roche-Dataset for PDE10A, Compound 948] |
| 10 nM | O=C(Nc1ccc(O)c2c1CCCC2=O)c1nc(C2CC2)cnc1Nc1cncnc1 [Roche-Dataset for PDE10A, Compound 949] |

| IC50 | Compound |
| --- | --- |
| 116 nM | Cn1ncc(C(=O)N2CCC2)c1C(=O)Nc1ccn(Cc2ccccc2)n1 [Roche-Dataset for PDE10A, Compound 950] |
| 2370 nM | Cc1nc2ccccc2nc1OCc1csc(N2CCOCC2)n1 [Roche-Dataset for PDE10A, Compound 951] |
| 7.64 nM | CC(=O)N1CC(C)(C)c2ccc(NC(=O)c3nc(C4CC4)cnc3Nc3cncnc3)cc21 [Roche-Dataset for PDE10A, Compound 952] |
| 146 nM | Cc1ncc(C)n2nc(CCc3nc(C4CCCC4)nn3C)nc12 [Roche-Dataset for PDE10A, Compound 956] |
| 19 nM | CC(=O)c1cccc(NC(=O)c2nc(C3CC3)cnc2Nc2cncnc2)c1 [Roche-Dataset for PDE10A, Compound 957] |
| 1290 nM | Cn1ncc(C(=O)N2CCC2)c1C(=O)Nc1cc(-c2ccccc2Cl)n[nH]1 [Roche-Dataset for PDE10A, Compound 958] |
| 1340 nM | CCOC(=O)c1cc(NC(=O)c2c(C(=O)N3CCC3)cnn2C)nn1C [Roche-Dataset for PDE10A, Compound 959] |
| 2670 nM | CCOC(=O)c1cnn(C)c1C(=O)Nc1cn(-c2ccccn2)cn1 [Roche-Dataset for PDE10A, Compound 960] |
| 87 nM | Cc1ncc(C)n2nc(CCc3nc(-c4cn[nH]c4)nn3C)nc12 [Roche-Dataset for PDE10A, Compound 961] |
| 16 nM | CCCc1cccc(NC(=O)c2nc(C3CC3)cnc2Nc2cncnc2)n1 [Roche-Dataset for PDE10A, Compound 963] |
| 6650 nM | Cc1ncc(C)n2nc(/C=C/c3nc(Br)cn3C3CC3)nc12 [Roche-Dataset for PDE10A, Compound 964] |
| 7.7 nM | COc1ccc2c(c1)c(=O)n(C)c1c(C)nc(-c3ccccc3Cl)n21 [Roche-Dataset for PDE10A, Compound 965] |
| 568 nM | CCCCc1cc(NC(=O)c2c(C(=O)N3CCC3)cnn2C)nn1C1CCCC1 [Roche-Dataset for PDE10A, Compound 966] |
| 15 nM | Cc1nc(-c2ccccc2Cl)n2c3ccc(Cl)cc3c(=O)n(C)c12 [Roche-Dataset for PDE10A, Compound 967] |
| 295 nM | CC(C)(C)OCCCNC(=O)c1nc(C2CC2)cnc1Nc1cncnc1 [Roche-Dataset for PDE10A, Compound 968] |
| 120 nM | Cn1ncc(C(=O)N2CCC2)c1C(=O)Nc1ccn(Cc2ccc(Cl)cc2)n1 [Roche-Dataset for PDE10A, Compound 970] |
| 1140 nM | CNC(=O)[C@@H]1CCC[C@H]1NC(=O)c1nc(C2CC2)cnc1Nc1cncnc1 [Roche-Dataset for PDE10A, Compound 971] |
| 166 nM | Cc1c(Cl)cc(Cl)c2nc(CCc3nccn3C)nn12 [Roche-Dataset for PDE10A, Compound 972] |
| 36 nM | CC(=O)c1ccc(NC(=O)c2nc(C3CC3)ccc2Nc2cncnc2)s1 [Roche-Dataset for PDE10A, Compound 974] |
| 6170 nM | O=C(c1nc(C2CC2)cnc1Nc1cncnc1)N1CCN(c2ccccc2F)CC1 [Roche-Dataset for PDE10A, Compound 975] |
| 826 nM | CC(C)(C)CC(C)(C)NC(=O)c1nc(C2CC2)cnc1Nc1cncnc1 [Roche-Dataset for PDE10A, Compound 976] |
